These results are taken from EP1976842B1 (priority 2006, dated 2007).

Broadly, the EC50 is the concentration that produces a half-maximal response.

Like-named read-outs stand apart in the source and are kept apart here.

The assay concerns the target T1, alpha7 nAChR (Rattus norvegicus, UniProt Q05941).
T1 construct: expressed in transfected cells
The experiment in a line: cell-based.

T1 sequence (Q05941 23-502): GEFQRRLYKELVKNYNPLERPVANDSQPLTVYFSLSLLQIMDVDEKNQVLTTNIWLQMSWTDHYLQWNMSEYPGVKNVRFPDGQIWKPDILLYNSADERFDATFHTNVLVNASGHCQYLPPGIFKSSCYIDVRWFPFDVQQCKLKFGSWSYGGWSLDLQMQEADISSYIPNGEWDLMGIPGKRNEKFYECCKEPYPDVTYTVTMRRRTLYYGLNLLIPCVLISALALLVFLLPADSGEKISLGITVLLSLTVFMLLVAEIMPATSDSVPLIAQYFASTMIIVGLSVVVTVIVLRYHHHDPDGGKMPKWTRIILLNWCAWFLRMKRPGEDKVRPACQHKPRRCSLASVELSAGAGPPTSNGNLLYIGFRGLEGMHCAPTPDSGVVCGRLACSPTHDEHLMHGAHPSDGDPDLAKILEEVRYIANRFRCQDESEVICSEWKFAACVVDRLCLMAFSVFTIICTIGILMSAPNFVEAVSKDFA
Excerpt: Rat GH4C1 cells were then transfected with the rat receptor, cloned and analyzed for functional alpha7 nicotinic receptor expression employing a FLIPR assay to measure changes in intracellular calcium concentrations.
The FLIPR system allows the measurements of real time Ca^2+-concentration changes in living cells using a Ca^2+ sensitive fluorescence dye (such as Fluo4). This instrument enables the screening for agonists and antagonists for alpha 7 nAChR channels stably expressed in GH4Cl cells.
GH4Cl cells stably transfected with rat- alpha7-nAChR (see above) were used. These cells are poorly adherent and therefore pretreatment of flasks and plates with poly-D-lysine was carried out. Cells are grown in 150 cm^2 T-flasks, filled with 30 ml of medium at 37°C and 5% CO2.
EC50 and IC50 values were calculated using the IDBS XLfit4.1 software package employing a sigmoidal concentration-response (variable slope) equation: Y = Bottom + ((Top-Bottom)/(1+(((EC50/X))^(∧)⁢HillSlope)). [formula]
The compounds were tested using the functional FLIPR primary screening assay employing the stable recombinant GH4C1 cell line expressing the alpha7 nAChR. Hits identified were validated further by generation of concentration-response curves.

On to `C[N+](C)(C)CCO` [Choline, choline], for which a half-maximal response (EC50) required 24200 ± 8300 nM. Molecule `O=c1cccc2n1C[C@@H]1CNC[C@H]2C1` [Cytisine, cytisine] registered an EC50 of 1210 ± 130 nM. `C[N+]1(C)CCN(c2ccccc2)CC1` [DMPP]: the concentration for a half-maximal effect (EC50) (agonist concentration-response, 0.001 to 30 microM, alpha7 nAChR stably expressed in GH4C1 cells, read-out: EC50) was 980 ± 470 nM.
